Measurements published in US20110166066A1, “CATESTATIN (CST) AND ITS VARIANTS FOR TREATMENT OF CARDIOVASCULAR AND METABOLIC DISORDERS” (priority 2008, published 2011).
Entries after “also recorded” stand apart in the source; their conditions may differ. Structures can show the parent of a compound that is named as a salt. Where two headings read alike, the source gives them in different places. No end group written: not given here.

What was measured:
[1] = test system: Langendorff perfused rat heart; assay: Isoproterenol stimulated Langendorff heart preparations; settings: P370L-CST 165 nM, G364S-CST 200 nM; for ISO-induced stimulation of LVP (concentration-response): ISO 0.1 nM to 1 μM, WT-CST 33 and 110 nM
[2] = test system: Langendorff perfused rat heart; assay: as above; settings: for Coronary pressure (ISO alone or ISO + peptide) / Inotropism (ISO alone or ISO + peptide) / Lusitropism (ISO alone or ISO + peptide): Table 3, ISO 5 nM; for ISO stimulatory effect on LVP: measured at 5 min
Protocol: Isoproterenol stimulated preparations—Cardiac preparations were stabilized for 20 min with KHs and then perfused with 5 nM ISO for 10 min. ISO was washed-out with KHs. After returning to control conditions, each heart was perfused with KHs containing a single concentration of WT-Cts […] or G364S-Cts (200 nM) with 5 nM ISO for a further 10 min.
To further describe the antagonistic action of either WT-Cts (33 nM), P370L-Cts (110 nM) or G364S-Cts (200 nM) against ISO-dependent stimulation, dose-response curves were generated by perfusing the heart preparations with KHs enriched with increasing concentrations of ISO (0.1 nM to 1 μM) alone. These curves were then compared to those obtained by exposing other cardiac preparations to the same perfusion medium containing increasing concentrations of ISO (0.1 nM to 1 μM) plus a single concentration of either WT-Cts (33 nM) or P370L-Cts (110 nM) or G364S-Cts (200 nM).
Statistics—Data are expressed as the mean±SEM. Curve fitting was accomplished in the program Kaleidagraph (Synergy Software, Reading, Pa.). Peptide EC50 and IC50 values were interpolated as the concentration that achieved 50% stimulation and inhibition, respectively. For analysis of phosphorylated proteins, levels were quantified using Bio-Rad QuantifyOne and volumes of phosphorylated proteins were divided by the levels of non-phosphorylated proteins to calculate fold activation. Stimulation of protein activity was expressed as fold increase over vehicle-treated control. The means and S.E.M. were calculated for each treatment. Multiple comparisons were made using either one-way ANOVA followed by Bonferroni's post-hoc test or two-way ANOVA. Statistical significance was concluded at p<0.05. Statistics were computed with the program InStat (GraphPad Software, Inc., San Diego, Calif.).
To characterize the inhibitory action of either WT-CST (11, 33 or 110 nM), G364S-CST (200 nM) or P370L-CST (110 nM) toward ISO-dependent stimulation of cardiac function, heart preparations were perfused with KHs containing increasing concentrations of ISO (0.1 nM to 1 μM) either alone or in combination with one of the three CST variants.

[3] = test system: WT and Chga knockout (KO) mice; assay: Response to PE or SNP and baroreflex sensitivity in unconscious mice; assay type: in vivo; settings: for Increase in SBP: 0.005 μg/g bw iv
Protocol: Unconscious mice. Surgical procedures for hemodynamic measurements: Hemodynamic evaluation in both WT and KO mice was performed under general anesthesia [ketamine (100 mg/kg) and xylazine (2.5 mg/kg)] while connected to a ventilator. LV pressure was monitored by Millar micromanometer catheter of size 1.4 French (0.46 mm; Millar Instruments, Houston, Tex.); it was inserted into the LV where phasic and mean pressure was continuously monitored (Gould, Cleveland, Ohio). A venous catheter (MicroRenathane tube MRE-033; Braintree Laboratories, Braintree, Mass.) is implanted on right femoral vein for injection of peptide and other reagents. All physiologic signals were acquired by WINDAQ (Dataq Instruments, Akron, Ohio) and analyzed by BP-Analysis software (developed for own laboratory).
Assessment of baroreflex sensitivity (BRS): BRS (in milliseconds per mmHg) was assessed by both high-pressure [phenylephrine (PE) bolus] and low-pressure [sodium nitroprusside (SNP) bolus] stimuli in unconscious mice. Although conscious animals provide optimal physiological data, a host of undesirable signals are triggered by physical activities, and sleep cycle alterations in behavioral state. Therefore, we have chosen to conduct the experiments in unconscious mice to avoid some of the pitfalls encountered in awake animals. The absolute changes of HR in response to changes in SBP induced by PE or SNP were subjected to linear regression analysis to determine BRS. To test the effect of CST on BRS in KO mice, CST was injected (40 μg/g bw iv) 30 min before the injection of PE or SNP through the catheter implanted into the femoral vein.
BRS to high-pressure stimulus. High pressure BRS was evaluated by recording diminution of HR in response to PE-induced hypertension. Changes in SBP and HR were recorded continuously for 0.5 min after a bolus injection of PE (0.005 μg/g bw iv). This dose was selected from a preliminary dose-response study (0.001-0.05 μg/g bw iv).
BRS to low-pressure stimulus. This was evaluated by recording increments in HR in response to SNP-induced fall in BP. Changes in SBP and HR were recorded continuously for 0.5 min after a bolus injection of SNP (0.05 μg/g bw iv). This dose was selected from a preliminary dose-response study (0.01-0.1 μg/g bw iv).

[4] = test system: Langendorff perfused rat heart; assay: ET-1 stimulated Langendorff heart preparations; settings: for ET-1 induced positive inotropism: ET-1 1 nM, WT-CST 33 nM, P370L-CST 110 nM, G364S-CST 200 nM
Protocol: ET-1 stimulated preparations—Hearts, stabilized for 20 min with KHs, were perfused for 10 min with ET-1 (1 nM) and then washed-out with KHs. After returning to control conditions, each heart was perfused with KHs containing a single concentration of either WT-Cts (33 nM), P370L-Cts (110 nM) or G364S-Cts (200 nM) plus 1 nM ET-1 for a further 10 min.

sympathochromaffin cells = settings: in vitro; cited from earlier work
[5] = test system: Langendorff perfused rat heart; assay: Langendorff perfused rat heart, basal conditions: concentration-response of catestatin peptides; settings: for Activity rank order / Inotropism / Lusitropism: basal conditions, Table 2
Description: Animals-Male Wistar rats (Morini, Bologna, Italy S.P.A.) weighing 180-250 g were housed (three per cage) in a ventilated cage rack system under standard conditions. Animals had food and water access ad libitum. The investigation conforms to the Guide for the Care and Use of Laboratory Animals, according to NIH Publication No. 85-23, revised 1996. Isolated heart preparation-Rats were anesthetized with ethyl carbamate (2 g/Kg rat, i.p.), the hearts rapidly excised and then transferred in ice-cold buffered Krebs-Henseleit solution (KHs). As previously described (23), the aorta was immediately cannulated with a glass cannula and connected to Langendorff apparatus to start perfusion at constant flow-rate (12 ml/min). Briefly, the apex of the left ventricle (LV) was pierced to avoid fluid accumulation. A water-filled latex balloon, connected to a pressure transducer ([…], Inc. USA), was inserted through mitral valve into the LV allowing isovolumic contractions and continuous mechanical parameters recording. Another pressure transducer located just above the aorta recorded coronary pressure (CP). […] Hemodynamic parameters were assessed using a PowerLab data acquisition system and analysed using Chart software (both purchased by ADInstruments, Basile, Italy). […] Curve fitting was accomplished in the program Kaleidagraph (Synergy Software, Reading, Pa.). Peptide EC50 and IC50 values were interpolated as the concentration that achieved 50% stimulation and inhibition, respectively. For analysis of phosphorylated proteins, levels were quantified using Bio-Rad QuantifyOne and volumes of phosphorylated proteins were divided by the levels of non-phosphorylated proteins to calculate fold activation. Stimulation of protein activity was expressed as fold increase over vehicle-treated control. The means and S.E.M. were calculated for each treatment. Multiple comparisons were made using either one-way ANOVA followed by Bonferroni's post-hoc test or two-way ANOVA. Statistical significance was concluded at p<0.05. Statistics were computed with the program InStat (GraphPad Software, Inc., San Diego, Calif.).

ECs = settings: cited from earlier work

Molecule: CC(C)NCC(O)c1ccc(O)c(O)c1 (centres unmarked) [ISO, Isoproterenol hydrochloride, reference compound]
- EC50 ([1]; Rattus norvegicus, Table 3, values match WT-CST 110 nM, read-out: EC50 (ISO on LVP, alone or + peptide) (converted)): 2.14 nM
- Effect of ISO alone on LVP ([2]; 5 nM to 1 μM): increased LVP significantly
- EC50 ([2]; Rattus norvegicus, ISO alone, read-out: EC50 of ISO-mediated LVP stimulation (converted)): 2.14 nM
- Coronary pressure (ISO alone or ISO + peptide) [2]: Vasodilation
- Inotropism (ISO alone or ISO + peptide) [2]: Positive
- Lusitropism (ISO alone or ISO + peptide) [2]: Positive

Molecule: CNC[C@H](O)c1cccc(O)c1 [PE, phenylephrine]
- PE-induced bradycardia ([3]; KO mice): completely abolished
- Increase in SBP ([3]; KO mice): 45.6 mmHg
- Decrease in HR ([3]; WT mice, 0.005 μg/g bw): 26 bpm
- Increase in SBP ([3]; WT mice): 34.1 mmHg

Molecule: G364S-CST: SEQ ID NO. 4 SSMKLSFRARAYSFRGPGPQL, naturally occurring Gly364Ser variant of catestatin (listed as Homo sapiens)
- ET-1 induced positive inotropism [4]: blocked
- Rank order of potency, inhibition of catecholamine secretion (sympathochromaffin cells): Pro370Leu>wild-type (WT)>Gly364Ser>Arg374Gln; also recorded: Pro370Leu>wildtype (WT)>Gly364Ser>Arg374Gln
- ISO-induced stimulation of LVP (concentration-response) [1]: significantly inhibited
- Other parameters tested (HR, LVP, +(LVdP/dT)max, −(LVdP/dT)max) ([5]; 11 to 200 nM): unaffected
- Activity rank order [5]: Activity: WT-CST > P370L-CST > G364S-CST
- Inotropism [5]: No effect
- Lusitropism [5]: No effect
- Effect on RPP ([5]; even at 33 nM): significant increase
- Block of ISO-dependent +(LVdP/dT)max ([2]; ISO 5 nM): > 100%
- ISO induced coronary dilation ([2]; ISO 5 nM): blocked
- ISO-dependent decrease of T/−t ([2]; ISO 5 nM): blocked
- ISO-induced positive lusitropism ([2]; ISO 5 nM): blocked
- Rank order of potency against ISO ([2]; ISO 5 nM): Order of potency: WT-CST > G364S-CST > P370L-CST
- ISO stimulatory effect on LVP ([2]; ISO 5 nM): abolished
- Coronary pressure (ISO alone or ISO + peptide) [2]: Abolished
- Inotropism (ISO alone or ISO + peptide) [2]: Abolished
- Lusitropism (ISO alone or ISO + peptide) [2]: Abolished

Molecule: P370L-CST: SEQ ID NO. 3 SSMKLSFRARAYGFRGPGLQL, naturally occurring Pro370Leu variant of catestatin (listed as Homo sapiens)
- ET-1 induced positive inotropism [4]: blocked
- Rank order of potency, inhibition of catecholamine secretion (sympathochromaffin cells): Pro370Leu>wild-type (WT)>Gly364Ser>Arg374Gln; also recorded: Pro370Leu>wildtype (WT)>Gly364Ser>Arg374Gln
- ISO-induced stimulation of LVP (concentration-response) [1]: significantly inhibited
- Concentration of maximum decrease in +(LVdP/dT)max [5]: 200 nM
- Concentration of maximum decrease in LVP and RPP [5]: 200 nM
- Effect on −(LVdP/dT)max [5]: marked decrease
- Effect on CP (coronary pressure) ([5]; basal): not accompanied by changes
- Activity rank order [5]: Activity: WT-CST > P370L-CST > G364S-CST
- Inotropism [5]: Negative
- Lusitropism [5]: No effect
- Effect on HR ([5]; basal, WT-Cts significant at 33 nM): not accompanied by changes
- Inotropic effect (LVP, RPP) ([5]; from 110 to 200 nM): negative inotropism
- Effect on +(LVdP/dT)max ([5]; starting from 110 nM): marked decrease
- ISO induced coronary dilation ([2]; ISO 5 nM): remaining unchanged
- ISO-induced positive lusitropism ([2]; ISO 5 nM): failed to modulate
- Rank order of potency against ISO ([2]; ISO 5 nM): Order of potency: WT-CST > G364S-CST > P370L-CST
- ISO stimulatory effect on LVP ([2]; ISO 5 nM): abolished
- Coronary pressure (ISO alone or ISO + peptide) [2]: No effect
- Inotropism (ISO alone or ISO + peptide) [2]: Abolished
- Lusitropism (ISO alone or ISO + peptide) [2]: Abolished

Molecule: endothelin-1 (CSCSSLMDKECVYFCHLDIIW; ends and bridges not checked; cysteine pairing not given here; UniProt P05305 53-73, looked up) [ET-1, endothelin-1, purchased from Sigma, reference compound]
- Effect on LVP and +(LVdP/dT)max ([4]; 1 nM): increased
- Effect on coronary constriction ([4]; ET-1 alone 1 and 10 nM): significant increase in coronary constriction

B1: vasostatin: another peptide derived from CgA, inhibited angiogenesis induced by VEGF (peptide, UniProt P10645 19-94, looked up)
Vasostatin-1: LPVNSPMNKGDTEVMKCIVEVISDTLSKPSPMPVSQECFETLRGDERILSILRHQNLLKELQDLALQGAKERAHQQ
modifications: Vasostatin-1
- Concentration at which effects were found (ECs): 330 nM
